Assay results: ChEMBL document CHEMBL1201862, “PubChem BioAssay data set” (2004)
The source made the active and inactive calls.

Experiments:
[1] = target: DNA topoisomerase (Yersinia pestis, UniProt A0A2S9PM60); assay: Y. pestis Topo-I inhibitors, cleavage product readout, dose response, biochemical, cherry-pick (AID 588525)
[2] = system: HeLa; assay: HeLa cell cytotoxicity, dose response, cytotoxicity control, 48 h, plate reader, cherry-picks (AID 504942); type: functional, cell-based; settings: Homo sapiens
[3] = target: G-protein coupled receptor 55 (Homo sapiens, UniProt Q9Y2T6); assay: GPR55 agonists via beta-arrestin recruitment, primary screen, imaging, U2OS cells, beta-arrestin-GFP redistribution (AID 1961); type: functional
[4] = target: T1, Hepatocyte nuclear factor 4-alpha (Homo sapiens, UniProt P41235); type: functional, cell-based;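 further: biochemical luminescence-based dose-response counterscreen measuring inhibition of HNF4 dimerization, run alongside a screen for blockers of ABHD5–perilipin-5 interaction; split luciferase complementation of HNF4 fusion proteins in cell lysate measuring dimerization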
T1 sequence (P41235 whole entry): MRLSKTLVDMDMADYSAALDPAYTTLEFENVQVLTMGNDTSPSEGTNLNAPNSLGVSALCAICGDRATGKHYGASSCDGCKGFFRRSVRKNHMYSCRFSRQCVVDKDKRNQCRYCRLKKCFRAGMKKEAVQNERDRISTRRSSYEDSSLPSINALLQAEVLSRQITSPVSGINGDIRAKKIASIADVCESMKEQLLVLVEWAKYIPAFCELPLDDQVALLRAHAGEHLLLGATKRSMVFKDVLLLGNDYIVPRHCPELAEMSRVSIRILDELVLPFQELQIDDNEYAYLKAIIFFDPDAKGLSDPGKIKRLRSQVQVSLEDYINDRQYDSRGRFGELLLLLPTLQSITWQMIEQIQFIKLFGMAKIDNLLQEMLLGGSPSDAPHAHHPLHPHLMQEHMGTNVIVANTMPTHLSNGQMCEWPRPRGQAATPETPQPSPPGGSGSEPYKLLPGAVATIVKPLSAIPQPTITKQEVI

[5] = target: Neurotensin receptor type 1 (Homo sapiens, UniProt P30989); type: functional;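 further: Image-based confirmatory dose-response assay measuring agonist activity at NTR1; NTR1-expressing U2OS osteosarcoma cells imaged for beta-arrestin GFP spot formation; agonist potency where compounds increase beta-arrestin recruitment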
[6] = target: T2, Acyl-homoserine lactone acylase PvdQ (Pseudomonas aeruginosa (strain LESB58), UniProt Q9I194); assay: P. aeruginosa PvdQ acylase inhibitors, dose response, biochemical, fluorescence, plate reader and imaging, cherry-picks (AID 493231)
T2 sequence (Q9I194 whole entry): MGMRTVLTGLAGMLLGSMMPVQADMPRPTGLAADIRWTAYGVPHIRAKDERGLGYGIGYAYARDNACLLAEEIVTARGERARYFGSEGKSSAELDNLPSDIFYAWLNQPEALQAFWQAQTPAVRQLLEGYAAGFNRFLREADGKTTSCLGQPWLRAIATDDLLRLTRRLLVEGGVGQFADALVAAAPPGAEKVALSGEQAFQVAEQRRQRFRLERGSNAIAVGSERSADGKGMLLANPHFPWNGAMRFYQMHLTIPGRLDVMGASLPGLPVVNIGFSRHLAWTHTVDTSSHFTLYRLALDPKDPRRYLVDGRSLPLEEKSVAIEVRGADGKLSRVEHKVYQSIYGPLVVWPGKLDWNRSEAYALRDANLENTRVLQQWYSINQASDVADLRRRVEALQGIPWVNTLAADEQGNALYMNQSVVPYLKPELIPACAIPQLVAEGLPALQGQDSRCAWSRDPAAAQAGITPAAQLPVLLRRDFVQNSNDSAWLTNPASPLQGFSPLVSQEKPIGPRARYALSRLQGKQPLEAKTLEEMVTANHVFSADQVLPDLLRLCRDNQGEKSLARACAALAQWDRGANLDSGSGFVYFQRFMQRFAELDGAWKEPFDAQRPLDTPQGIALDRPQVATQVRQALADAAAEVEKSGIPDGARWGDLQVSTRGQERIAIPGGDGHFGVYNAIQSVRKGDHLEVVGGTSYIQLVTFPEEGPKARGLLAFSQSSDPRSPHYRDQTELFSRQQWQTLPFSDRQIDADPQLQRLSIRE

[7] = target: T3, Hexokinase HKDC1 (Homo sapiens, UniProt Q2TB90); assay: HKDC1 hexokinase inhibitors, SAR follow-up, biochemical, set 2 (AID 588355); type: functional
T3 sequence (Q2TB90 whole entry): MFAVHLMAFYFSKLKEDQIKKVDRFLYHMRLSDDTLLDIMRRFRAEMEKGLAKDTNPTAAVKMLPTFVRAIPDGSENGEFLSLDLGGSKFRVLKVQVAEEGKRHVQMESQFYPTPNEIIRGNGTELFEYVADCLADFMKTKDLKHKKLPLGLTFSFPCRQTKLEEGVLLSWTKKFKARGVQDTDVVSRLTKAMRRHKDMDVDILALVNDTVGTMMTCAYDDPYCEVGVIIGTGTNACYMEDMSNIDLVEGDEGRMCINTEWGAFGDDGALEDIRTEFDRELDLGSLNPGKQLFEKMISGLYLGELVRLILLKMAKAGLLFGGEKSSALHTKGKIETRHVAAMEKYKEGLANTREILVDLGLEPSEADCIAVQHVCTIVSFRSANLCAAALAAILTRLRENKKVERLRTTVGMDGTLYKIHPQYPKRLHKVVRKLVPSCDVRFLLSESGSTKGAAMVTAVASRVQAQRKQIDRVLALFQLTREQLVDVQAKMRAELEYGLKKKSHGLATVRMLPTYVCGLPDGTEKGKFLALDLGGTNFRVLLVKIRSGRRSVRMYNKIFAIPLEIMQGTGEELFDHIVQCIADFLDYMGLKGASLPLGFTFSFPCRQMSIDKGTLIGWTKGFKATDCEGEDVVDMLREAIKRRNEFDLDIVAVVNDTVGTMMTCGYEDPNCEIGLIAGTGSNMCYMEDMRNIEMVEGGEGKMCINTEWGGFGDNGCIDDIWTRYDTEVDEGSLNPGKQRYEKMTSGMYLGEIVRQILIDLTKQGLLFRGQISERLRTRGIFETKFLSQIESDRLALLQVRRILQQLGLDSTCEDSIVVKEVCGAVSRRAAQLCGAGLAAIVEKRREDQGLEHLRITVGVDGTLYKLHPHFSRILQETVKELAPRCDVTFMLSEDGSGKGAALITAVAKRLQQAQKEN

[8] = target: T3, Hexokinase HKDC1; assay: SAR analysis of small molecule inhibitors of hexokinase domain containing I (HKDC1) - Set 3. [Related pubchem assays (depositor defined):AID493160, AID493190]; type: functional
[9] = target: Hexokinase-1 (Homo sapiens, UniProt P19367); assay: HK1 enzyme inhibition by HKDC1 hits, SAR follow-up, selectivity assay for HKDC1 inhibitor project, biochemical, set 2, resazurin fluorescence coupled readout (AID 588356); type: functional
Hexokinase-1, sequence (P19367 whole entry): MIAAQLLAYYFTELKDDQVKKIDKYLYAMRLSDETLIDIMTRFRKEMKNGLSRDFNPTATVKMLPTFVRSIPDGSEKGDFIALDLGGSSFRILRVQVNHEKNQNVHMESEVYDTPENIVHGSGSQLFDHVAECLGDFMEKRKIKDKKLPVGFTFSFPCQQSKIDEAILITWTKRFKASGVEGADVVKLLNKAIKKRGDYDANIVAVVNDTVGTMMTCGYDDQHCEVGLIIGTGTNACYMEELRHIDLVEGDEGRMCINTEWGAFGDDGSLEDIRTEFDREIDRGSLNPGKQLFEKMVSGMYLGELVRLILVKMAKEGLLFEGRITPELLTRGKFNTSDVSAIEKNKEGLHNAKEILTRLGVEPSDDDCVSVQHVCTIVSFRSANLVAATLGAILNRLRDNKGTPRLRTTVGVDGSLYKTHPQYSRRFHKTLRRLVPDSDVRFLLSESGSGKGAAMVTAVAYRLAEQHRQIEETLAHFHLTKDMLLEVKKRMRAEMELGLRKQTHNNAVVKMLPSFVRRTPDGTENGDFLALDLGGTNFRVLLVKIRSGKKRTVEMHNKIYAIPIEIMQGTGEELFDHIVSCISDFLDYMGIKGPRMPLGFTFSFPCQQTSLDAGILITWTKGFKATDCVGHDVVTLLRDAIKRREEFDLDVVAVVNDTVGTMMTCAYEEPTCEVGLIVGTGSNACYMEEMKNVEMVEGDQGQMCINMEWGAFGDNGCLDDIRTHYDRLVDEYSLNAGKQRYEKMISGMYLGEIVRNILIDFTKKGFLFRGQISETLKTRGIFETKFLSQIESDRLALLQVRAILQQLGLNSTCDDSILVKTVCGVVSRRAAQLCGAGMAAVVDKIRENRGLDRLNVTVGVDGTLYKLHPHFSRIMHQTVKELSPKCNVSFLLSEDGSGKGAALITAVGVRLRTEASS

G-protein coupled receptor 55, sequence (Q9Y2T6 whole entry, the tested form may be a part): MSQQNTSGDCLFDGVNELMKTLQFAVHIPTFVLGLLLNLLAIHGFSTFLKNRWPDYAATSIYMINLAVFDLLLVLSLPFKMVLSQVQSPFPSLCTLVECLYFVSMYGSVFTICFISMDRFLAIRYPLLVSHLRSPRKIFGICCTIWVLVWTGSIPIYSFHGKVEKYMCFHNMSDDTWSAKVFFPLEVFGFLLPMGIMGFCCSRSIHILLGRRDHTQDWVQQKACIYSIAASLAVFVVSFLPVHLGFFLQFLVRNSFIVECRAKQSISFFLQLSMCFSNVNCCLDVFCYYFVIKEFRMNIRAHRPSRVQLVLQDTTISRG
DNA topoisomerase, sequence (A0A2S9PM60 whole entry): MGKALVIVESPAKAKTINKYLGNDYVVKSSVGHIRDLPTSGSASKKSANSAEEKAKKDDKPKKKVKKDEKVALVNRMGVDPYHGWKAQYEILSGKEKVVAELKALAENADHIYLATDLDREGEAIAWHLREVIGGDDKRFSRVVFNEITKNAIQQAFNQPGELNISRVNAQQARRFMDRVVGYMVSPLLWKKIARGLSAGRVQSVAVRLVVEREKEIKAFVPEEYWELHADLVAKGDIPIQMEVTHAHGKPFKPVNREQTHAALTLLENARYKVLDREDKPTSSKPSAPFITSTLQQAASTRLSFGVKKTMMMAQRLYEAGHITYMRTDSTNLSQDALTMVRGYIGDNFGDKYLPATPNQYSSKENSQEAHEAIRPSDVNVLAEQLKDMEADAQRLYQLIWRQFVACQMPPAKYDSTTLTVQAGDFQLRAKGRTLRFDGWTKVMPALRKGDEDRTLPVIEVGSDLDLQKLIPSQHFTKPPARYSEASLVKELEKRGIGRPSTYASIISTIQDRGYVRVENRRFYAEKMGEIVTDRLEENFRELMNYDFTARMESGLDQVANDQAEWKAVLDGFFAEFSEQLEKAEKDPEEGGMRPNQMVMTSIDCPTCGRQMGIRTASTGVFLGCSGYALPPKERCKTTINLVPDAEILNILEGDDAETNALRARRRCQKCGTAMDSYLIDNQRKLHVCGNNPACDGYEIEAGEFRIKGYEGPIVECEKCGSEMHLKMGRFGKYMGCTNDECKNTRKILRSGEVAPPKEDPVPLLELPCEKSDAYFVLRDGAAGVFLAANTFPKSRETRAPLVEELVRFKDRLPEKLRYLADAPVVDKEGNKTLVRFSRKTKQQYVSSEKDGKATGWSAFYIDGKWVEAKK
Neurotensin receptor type 1, sequence (P30989 whole entry): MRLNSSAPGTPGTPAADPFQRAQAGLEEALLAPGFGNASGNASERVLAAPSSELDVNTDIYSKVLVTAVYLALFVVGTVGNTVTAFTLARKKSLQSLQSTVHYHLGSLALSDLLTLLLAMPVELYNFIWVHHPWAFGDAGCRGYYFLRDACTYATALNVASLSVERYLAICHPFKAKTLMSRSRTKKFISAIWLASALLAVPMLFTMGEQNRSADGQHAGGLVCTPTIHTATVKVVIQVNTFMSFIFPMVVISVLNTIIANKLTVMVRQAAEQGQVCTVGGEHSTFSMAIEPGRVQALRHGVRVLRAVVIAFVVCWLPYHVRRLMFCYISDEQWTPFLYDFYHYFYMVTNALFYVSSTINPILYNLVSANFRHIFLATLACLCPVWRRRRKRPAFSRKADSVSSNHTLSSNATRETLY

In the case of `CC(C)(C)c1ccc(OCCn2nc(C(=O)O)c3ccccc3c2=O)cc1`, the AC50 [1] is reported as 9.12 µM (active).
For `O=CC1=C(c2ccccc2)Oc2ccccc2O1`, the AC50 [2] was 23.9 µM (active), the EC50 [3] was 2.28 µM (active) and the IC50 [4] was 10.4 µM (inactive). For the same compound, the EC50 [5] was 16 µM (active) and the AC50 [6] was 2.14 µM (active).
For `CC(=O)NC1C(=O)N(CCN2CCOCC2)c2ccc(Br)cc21` (centres undefined), the IC50 [7] was > 80 µM (inactive), the IC50 [8] was > 80 µM (inactive) and the IC50 [9] was > 80 µM (inactive).
